The target in data set [1] is T1, Cannabinoid receptor 2 (Homo sapiens, UniProt P34972). The data set can be described thus: Displacement of [3H]CP-55940 form human CB2 receptor expressed in CHO cells. The format is cell-based. Background: Displacement assays read how much labelled ligand stays bound in the presence of the test substance.
A short description of data set [2]: Metabolic stability in human liver microsomes assessed as parent compound remaining after 15 mins. In kind it is ADME, Microsome. To be noted: read-out: Stability. (Liver microsomes are vesicles of endoplasmic reticulum, rich in cytochrome P450 enzymes.)
For data set [3], the species on record is Homo sapiens. The data set can be described thus: Selectivity for human CB2 receptor over CB1 receptor.
Data set [4] in a line: AUC (0 to 24 hrs) in rat at 10 mg/kg, po. In kind it is ADME, organism-based. Also noted: time < 24 hr, dose 10 mg/kg, route oral. Conditions: plasma.
For data set [5], the target named is T1, Cannabinoid receptor 2. The data set can be described thus: Agonist activity at human CB2 receptor expressed in CHO cells by [35S]GTP-gamma-S binding assay. The format is functional, cell-based. (In general: GTPγS is a poorly hydrolysed GTP analogue; its binding reports G protein activation.)
In data set [6] the target is Cannabinoid receptor 1 (Homo sapiens, UniProt P21554). The data set can be described thus: Displacement of [3H]CP-55940 form human CB1 receptor expressed in CHO cells. In kind it is cell-based.
Cannabinoid receptor 1, sequence (P21554 whole entry): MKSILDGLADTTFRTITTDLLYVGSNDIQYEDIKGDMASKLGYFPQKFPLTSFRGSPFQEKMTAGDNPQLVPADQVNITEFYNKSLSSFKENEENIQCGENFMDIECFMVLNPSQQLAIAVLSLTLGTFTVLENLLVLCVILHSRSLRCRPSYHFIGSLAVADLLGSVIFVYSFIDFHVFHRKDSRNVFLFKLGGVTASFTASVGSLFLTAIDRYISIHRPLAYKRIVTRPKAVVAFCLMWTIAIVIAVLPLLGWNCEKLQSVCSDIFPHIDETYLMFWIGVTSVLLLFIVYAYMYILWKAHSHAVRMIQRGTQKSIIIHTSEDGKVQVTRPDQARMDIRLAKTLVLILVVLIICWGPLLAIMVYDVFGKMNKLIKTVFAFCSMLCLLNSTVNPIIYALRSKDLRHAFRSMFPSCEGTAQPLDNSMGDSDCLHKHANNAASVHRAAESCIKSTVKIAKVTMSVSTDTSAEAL
Data set [7] concerns the target T1, Cannabinoid receptor 2. In words: Efficacy at human CB2 receptor expressed in CHO cells by [35S]GTP-gamma-S binding assay relative to CP-55940. The format is functional, cell-based.
Data set [8] can be described thus: Half life in rat at 10 mg/kg, po. The format is ADME, organism-based. Also noted: dose 10 mg/kg, route oral. To be noted: in vivo.
A short description of data set [9]: Tmax in rat at 10 mg/kg, po. In kind it is ADME, organism-based. Conditions: in vivo. Also noted: dose 10 mg/kg, route oral.
A short description of data set [10]: Cmax in rat at 10 mg/kg, po. In kind it is ADME, organism-based. Also noted: dose 10 mg/kg, route oral. Conditions: in vivo.
In data set [11] the target is T1, Cannabinoid receptor 2. The data set can be described thus: Displacement of [3H]CP-55940 form human CB2 receptor expressed in CHO cells at 100 nM. In kind it is cell-based.
Data set [12] is described as follows: Cmax in rat at 30 mg/kg, po. Further details: dose 30 mg/kg, route oral. Conditions: in vivo. The format is ADME, organism-based.
Data set [13] is described as follows: Tmax in rat at 3 mg/kg, po. The format is ADME, organism-based. Also noted: dose 3 mg/kg, route oral. To be noted: in vivo.
Data set [14] is described as follows: Tmax in rat at 30 mg/kg, po. In kind it is ADME, organism-based. Also noted: dose 30 mg/kg, route oral. Conditions: in vivo.
Data set [15] in a line: Half life in rat at 30 mg/kg, po. The format is ADME, organism-based. Further details: dose 30 mg/kg, route oral. Conditions: in vivo.
Data set [16] in a line: AUC (0 to 24 hrs) in rat at 30 mg/kg, po. The format is ADME, organism-based. Also noted: time < 24 hr, dose 30 mg/kg, route oral. To be noted: plasma.
A short description of data set [17]: AUC (0 to 24 hrs) in rat at 3 mg/kg, po. The format is ADME, organism-based. Also noted: time < 24 hr, dose 3 mg/kg, route oral. Conditions: plasma.
The nature of data set [18]: Oral bioavailability in rat at 3 mg/kg, po. In kind it is ADME, organism-based. Conditions: in vivo.
The nature of data set [19]: Cmax in rat at 3 mg/kg, po. The format is ADME, organism-based. Also noted: dose 3 mg/kg, route oral. Conditions: in vivo.
A short description of data set [20]: Half life in rat at 3 mg/kg, po. In kind it is ADME, organism-based. Also noted: dose 3 mg/kg, route oral. Conditions: in vivo.

SMILES strings stand for the structures. Some results are limits rather than exact numbers.

The term IC50 denotes the point on the concentration scale where inhibition reaches its midpoint. A lower IC50 goes with inhibition by little substance. In general, AUC(0-t) refers to exposure summed from dosing to a finite time, without extrapolation to infinity. As usually defined, the EC50 is the concentration at which the effect is half-maximal. Lower therefore signals higher potency in that assay. By Emax is commonly meant the size of the effect at its maximum, as opposed to the concentration needed. What is called half-life is the time in which the quantity being followed falls by half. Higher therefore signals slow loss. In general, Tmax refers to the time at which the peak concentration occurs. A word on the Cmax: it is the highest concentration seen after dosing. The term inhibition denotes the percentage by which the read-out fell short of the control. High values mean a strong effect, low ones a weak effect. A word on the bioavailability: it is the share of a dose that reaches the circulation, judged against a reference dose that is usually intravenous. Lower therefore signals little systemic uptake.

T1 sequence (P34972 whole entry): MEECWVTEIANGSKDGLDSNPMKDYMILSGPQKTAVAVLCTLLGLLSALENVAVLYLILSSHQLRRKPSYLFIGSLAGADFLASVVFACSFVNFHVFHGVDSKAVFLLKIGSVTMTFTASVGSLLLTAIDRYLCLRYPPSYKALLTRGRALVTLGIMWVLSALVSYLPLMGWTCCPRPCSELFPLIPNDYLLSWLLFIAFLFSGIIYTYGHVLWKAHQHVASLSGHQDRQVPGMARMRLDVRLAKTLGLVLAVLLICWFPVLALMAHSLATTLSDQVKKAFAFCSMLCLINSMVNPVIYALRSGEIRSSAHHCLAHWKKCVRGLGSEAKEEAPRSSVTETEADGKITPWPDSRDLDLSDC

In the case of `Cc1c(C(C)(C)C)s/c(=N\C(=O)c2ccc(Cl)c(C(F)(F)F)c2)n1CC1CC1`, the IC50 in data set [1] stood at 230 nM.
Regarding `COc1ccc(C(F)(F)F)cc1C(=O)/N=c1\sc(C(C)(C)C)c(C)n1CC1CC1`, the results for the IC50 in [1] and in data set [6] were 1.2 nM and 1900 nM, respectively. Also, in [2], the remaining at 0.25 h worked out at 85%. Further, the Ratio IC50 in data set [3] stood at 1600. In [4], the AUC(0-t) at 24 h came out at 1120 ng·h/mL. For the same molecule, the EC50 in data set [5] was 0.62 nM. Further, the maximum response (Emax) in [7] came out at 100%. Besides, the half-life in [8] was 4.07 h. In addition, the Tmax in data set [9] came to 1 h. This molecule also gave a Cmax in data set [10] of 148 ng/mL.
`CCCn1c(C)c(C(C)(C)C)s/c1=N\C(=O)c1cccc(C(F)(F)F)c1` yielded an IC50 in [1] of 46 nM.
For the molecule `Cc1cccc(C(=O)/N=c2\sc(C(C)(C)C)c(C)n2CC2CC2)c1`, the IC50 in data set [1] was 22 nM.
Turning to `Cc1c(C(C)(C)C)s/c(=N\C(=O)c2cccc(OC(F)(F)F)c2)n1CC1CC1`, the concentration for half-maximal inhibition (IC50) in data set [1] turned out to be 5.7 nM; in [6], 1100 nM. Further, in data set [5], the response was half-maximal at 7.6 nM (EC50). Moreover, the maximal response (Emax) in [7] came to 72%.
In the case of `Cc1c(C(C)(C)C)s/c(=N\C(=O)c2cccc(C(F)(F)F)c2)n1C`, in data set [1], the IC50 was determined as 220 nM.
For `Cc1c(C(C)(C)C)s/c(=N\C(=O)c2cccc(N(C)C)c2)n1CC1CC1`, the IC50 in data set [1] was determined as 17 nM. Moreover, in [2], the remaining at 0.25 h was 44%.
For the molecule `Cc1c(C(C)(C)C)s/c(=N\C(=O)c2ccc(C(F)(F)F)cc2)n1CC1CC1`, the inhibition in data set [11] came to 24%.
Still for that read-out and setting: next, `Cc1c(C(C)(C)C)s/c(=N\C(=O)c2cc(C(F)(F)F)cc(C(F)(F)F)c2)n1CC1CC1`: 10%.
Take `Cc1c(C(C)(C)C)s/c(=N\C(=O)c2cccc(Br)c2)n1CC1CC1`: the half-maximal inhibitory concentration (IC50) is 1.2 nM in data set [1] and 53 nM in [6]. For the same molecule, the response in data set [5] was half-maximal at 0.3 nM (EC50). The Emax in data set [7] stood at 96%.
In data set [1], `Cc1c(C(C)C)s/c(=N\C(=O)c2cccc(C(F)(F)F)c2)n1CC1CC1` showed an IC50 of 29 nM.
Consider `Cc1c(C(C)(C)C)s/c(=N\C(=O)c2cc(C(F)(F)F)ccc2N(C)C)n1CC1CC1`, for which the concentration for half-maximal inhibition (IC50) in data set [1] is 9.4 nM; in [6], above 10000 nM. Also, the Ratio IC50 in data set [3] was above 1000. The same molecule had a 50% effective concentration (EC50) in [5] of 7.3 nM. The maximal response (Emax) in data set [7] turned out to be 89%.
On to `Cc1c(C(C)(C)C)s/c(=N\C(=O)c2cccc(F)c2)n1CC1CC1`, for which the inhibition in [11] amounted to 44%.
In turn, `COc1cccc(C(=O)/N=c2\sc(C(C)(C)C)c(C)n2CC2CC2)c1` came in with an IC50 in data set [1] of 24 nM.
`Cc1c(C(C)(C)C)s/c(=N\C(=O)c2cc(C(F)(F)F)ccc2Cl)n1CC1CC1`: the IC50 in data set [1] was determined as 2.1 nM; in [6] it was 830 nM. Besides, a half-maximal response in data set [5] (EC50) required 4 nM. This molecule came in with a maximal response (Emax) in [7] of 95%.
`Cc1c(C(C)(C)C)s/c(=N\C(=O)c2cccc(Cl)c2)n1CC1CC1` returned a half-inhibitory concentration (IC50) in data set [1] of 20 nM.
Consider `COCCn1c(C)c(C(C)(C)C)s/c1=N\C(=O)c1cccc(C(F)(F)F)c1`, for which the IC50 worked out at 10 nM in [1] and 4100 nM in data set [6]. This molecule also had an EC50 in data set [5] of 5.6 nM. For the same molecule, the maximal response (Emax) in data set [7] is 59%.
Take `Cc1c(C(C)(C)C)s/c(=N\C(=O)c2ccccc2C(F)(F)F)n1CC1CC1`: in data set [6], the IC50 was 140 nM.
`Cc1s/c(=N\C(=O)c2cccc(C(F)(F)F)c2)n(CC2CC2)c1C`: the half-inhibitory concentration (IC50) in data set [1] came to 25 nM.
The same measure, in the same setting: next, `CCOC(=O)c1s/c(=N\C(=O)c2cccc(C(F)(F)F)c2)n(CC2CC2)c1C`: 110 nM.
In the case of `Cc1c(C(C)(C)C)s/c(=N\C(=O)c2cccc(C(F)(F)F)c2)n1CC1CC1`, the maximum concentration (Cmax) in data set [12] came out at 498 ng/mL; in data set [19], 43.1 ng/mL; in [10] it was 223 ng/mL. Also, the Tmax came to 1.67 h in data set [13], 2.67 h in data set [14] and 2 h in data set [9]. The IC50 stood at 13 nM in data set [1] and 3500 nM in data set [6]. The half-life in data set [15] is 4.7 h; in [8], 4.96 h; in data set [20], 4.8 h. For the same molecule, the Ratio IC50 in [3] was determined as 270. Moreover, the area under the curve AUC(0-t) at 24 h was 4240 ng·h/mL in data set [16], 326 ng·h/mL in data set [17] and 2050 ng·h/mL in data set [4]. This molecule also gave a bioavailability in data set [18] of 52%. Further, in data set [5], the EC50 is 10 nM.
Take `CCn1c(C)c(C(C)(C)C)s/c1=N\C(=O)c1cccc(C(F)(F)F)c1`: the 50% inhibitory concentration (IC50) in data set [1] is 74 nM.
Molecule `Cc1c(C(=O)N(C)C)s/c(=N\C(=O)c2cccc(C(F)(F)F)c2)n1CC1CC1` gave an IC50 in [1] of 1000 nM.
Take `Cc1ccc(C(F)(F)F)cc1C(=O)/N=c1\sc(C(C)(C)C)c(C)n1CC1CC1`: the IC50 in data set [1] came out at 2.1 nM; in [6] it was 1200 nM. Moreover, the Ratio IC50 in data set [3] amounted to 570. Besides, the response in data set [5] was half-maximal at 2.7 nM (EC50). The molecule further had an Emax in data set [7] of 99%.
Regarding `CCOCCn1c(C)c(C(C)(C)C)s/c1=N\C(=O)c1cccc(C(F)(F)F)c1`, it took 2 nM to reach a half-maximal effect in data set [5] (EC50). For the same molecule, the IC50 in data set [6] was determined as 690 nM. This molecule also had a maximum response (Emax) in data set [7] of 45%.
With `Cc1c(C(C)(C)C)s/c(=N\C(=O)c2cc(C(F)(F)F)ccc2F)n1CC1CC1`, in data set [3], the Ratio IC50 turned out to be 440. Further, the 50% effective concentration (EC50) in data set [5] turned out to be 1.5 nM. This molecule returned an IC50 in data set [6] of 1500 nM. In [7], this molecule registered an Emax of 85%.
`Cc1c(C(C)(C)C)s/c(=N\C(=O)c2cccc(C(F)(F)F)c2Cl)n1CC1CC1` showed a half-maximal inhibitory concentration (IC50) in data set [1] of 0.41 nM.
In data set [1], `Cc1c(C(C)(C)C)s/c(=N\C(=O)c2ccccc2)n1CC1CC1` yielded an IC50 of 260 nM. Besides, in [5], it took 86 nM to reach a half-maximal effect (EC50). The maximal response (Emax) in data set [7] is 100%.

(Values after ChEMBL document CHEMBL1140512, “N-Alkylidenearylcarboxamides as new potent and selective CB(2) cannabinoid receptor agonists with good oral bioavailability” (Bioorg Med Chem Lett, 2007).)
